Assay [1] concerns HCV genotype 1a (H77 strain) replicon in HUH-7 cells. Kind of assay: HCV replicon luciferase reporter assay, genotype 1a. It is filed as cell-based. The following applies: Hepatitis C virus, Huh-7, 72 h, HCV genotype 1a replicon luciferase, 3 days incubation, read-out: LE_1a (EC50, range). The method, boiled down:
(§1)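 Replicon inhibition for both genotypes was measured as Renilla luciferase signal (EnduRen, 7.5 μM final, 2 h) after 3-day, 37° C exposure of replicon-bearing HUH-7 cells in 4% FCS DMEM, 0.5% DMSO. The 1b construct carries S1179I; the 1a H77 construct carries P1496L and S2204I. Twenty-point, 3-fold dilutions were fitted four-parametrically for EC50, and CC50 was taken from multiplexed Cell Titer-Blue.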
(In general: In antiviral work, replicon cells carry a viral genome segment that copies itself.)

Assay [2] concerns HCV genotype 1b (Con1) replicon in HUH-7 cells. Kind of assay: HCV replicon luciferase reporter assay, genotype 1b. It is filed as cell-based. The settings on record: Hepatitis C virus, Huh-7, 72 h, HCV genotype 1b replicon luciferase, 3 days incubation, read-out: LE_1b (EC50, range). The gist of the method: as §1

A word on the EC50: it is the concentration that produces a half-maximal response.

On to `COc1ccc2c(O[C@@H]3C[C@H]4C(=O)N[C@]5(C(=O)NS(=O)(=O)C6(C)CC6)C[C@H]5/C=C\CC[C@@H](C)C[C@@H](C)[C@H](NC(=O)OC(C)(C)C(F)(F)F)C(=O)N4C3)nc(-c3ccc4c(c3)OCCO4)cc2c1` [Compound 5235, 1,1,1-trifluoro-2-methylpropan-2-yl((2R,6S,7R,9R,13aS,14aR,16aS,Z)-2-((3-(2,3-dihydrobenzo[b][1,4]dioxin-6-yl)-6-methoxyisoquinolin-1-yl)oxy)-7,9-dimethyl-14a-(((1-methylcyclopropyl)sulfonyl)carbamoyl)-5,16-dioxo-1,2,3,5,6,7,8,9,10,11,13a,14,14a,15,16,16a-hexadecahydrocyclopropa[e]pyrrolo[1,2-a][1,4]diazacyclopentadecin-6-yl)carbamate], for which the concentration giving a half-maximal response (EC50) in assay [1] and in assay [2] was under 5.46 nM in each case.
For the compound `COc1ccc2c(O[C@@H]3C[C@H]4C(=O)N[C@]5(C(=O)NS(=O)(=O)C6(C)CC6)C[C@H]5/C=C\CC[C@H](C)C[C@@H](C)[C@H](NC(=O)OC(C)(C)C(C)(F)F)C(=O)N4C3)nc(-c3ccc4c(c3)OCCO4)cc2c1` [Compound 5236, 3,3-difluoro-2-methylbutan-2-yl((2R,6S,7R,9S,13aS,14aR,16aS,Z)-2-((3-(2,3-dihydrobenzo[b][1,4]dioxin-6-yl)-6-methoxyisoquinolin-1-yl)oxy)-7,9-dimethyl-14a-(((1-methylcyclopropyl)sulfonyl)carbamoyl)-5,16-dioxo-1,2,3,5,6,7,8,9,10,11,13a,14,14a,15,16,16a-hexadecahydrocyclopropa[e]pyrrolo[1,2-a][1,4]diazacyclopentadecin-6-yl)carbamate], the concentration giving a half-maximal response (EC50) in assay [1] and in assay [2] was under 5.46 nM in each case.
`COc1ccc2c(O[C@@H]3C[C@H]4C(=O)N[C@]5(C(=O)NS(=O)(=O)C6(C)CC6)C[C@H]5/C=C\CC[C@@H](C)C[C@@H](C)[C@H](NC(=O)OC(C)(C)C(C)(F)F)C(=O)N4C3)nc(-c3ccc4c(c3)OCCO4)cc2c1` [Compound 5237, 3,3-difluoro-2-methylbutan-2-yl((2R,6S,7R,9R,13aS,14aR,16aS,Z)-2-((3-(2,3-dihydrobenzo[b][1,4]dioxin-6-yl)-6-methoxyisoquinolin-1-yl)oxy)-7,9-dimethyl-14a-(((1-methylcyclopropyl)sulfonyl)carbamoyl)-5,16-dioxo-1,2,3,5,6,7,8,9,10,11,13a,14,14a,15,16,16a-hexadecahydrocyclopropa[e]pyrrolo[1,2-a][1,4]diazacyclopentadecin-6-yl)carbamate]: the 50% effective concentration (EC50) in assay [1] and in assay [2] was under 5.46 nM throughout.
With `COc1ccc2c(O[C@@H]3C[C@H]4C(=O)N[C@]5(C(=O)NS(=O)(=O)C6CC6)C[C@H]5/C=C\CC[C@@H](C)C[C@@H](C)[C@H](NC(=O)OC(C)(C)C)C(=O)N4C3)nc(-c3ccc4c(c3)OCCO4)cc2c1` [Compound 5239, tert-butyl ((2R,6S,7R,9R,13aS,14aR,16aS,Z)-14a-((cyclopropylsulfonyl)carbamoyl)-2-((3-(2,3-dihydrobenzo[b][1,4]dioxin-6-yl)-6-methoxyisoquinolin-1-yl)oxy)-7,9-dimethyl-5,16-dioxo-1,2,3,5,6,7,8,9,10,11,13a,14,14a,15,16,16a-hexadecahydrocyclopropa[e]pyrrolo[1,2-a][1,4]diazacyclopentadecin-6-yl)carbamate], the EC50 in assay [1] and in assay [2] was under 5.46 nM in each case.
Turning to `COc1ccc2c(O[C@@H]3C[C@H]4C(=O)N[C@]5(C(=O)NS(=O)(=O)C6CC6)C[C@H]5/C=C\CC[C@@H](C)C[C@@H](C)[C@H](NC(=O)OC(C)(C)C(C)(F)F)C(=O)N4C3)nc(-c3ccc4c(c3)OCCO4)cc2c1` [Compound 5241, 3,3-difluoro-2-methylbutan-2-yl((2R,6S,7R,9R,13aS,14aR,16aS,Z)-14a-((cyclopropylsulfonyl)carbamoyl)-2-((3-(2,3-dihydrobenzo[b][1,4]dioxin-6-yl)-6-methoxyisoquinolin-1-yl)oxy)-7,9-dimethyl-5,16-dioxo-1,2,3,5,6,7,8,9,10,11,13a,14,14a,15,16,16a-hexadecahydrocyclopropa[e]pyrrolo[1,2-a][1,4]diazacyclopentadecin-6-yl)carbamate], the EC50 in assay [1] and in assay [2] was under 5.46 nM in each case.
For `COc1ccc2c(O[C@@H]3C[C@H]4C(=O)N[C@]5(C(=O)NS(=O)(=O)C6CC6)C[C@H]5/C=C\CC[C@@H](C)C[C@@H](C)[C@H](NC(=O)OC(C)(C)C(F)(F)F)C(=O)N4C3)nc(-c3ccc4c(c3)OCCO4)cc2c1` [Compound 5243, 1,1,1-trifluoro-2-methylpropan-2-yl((2R,6S,7R,9R,13aS,14aR,16aS,Z)-14a-((cyclopropylsulfonyl)carbamoyl)-2-((3-(2,3-dihydrobenzo[b][1,4]dioxin-6-yl)-6-methoxyisoquinolin-1-yl)oxy)-7,9-dimethyl-5,16-dioxo-1,2,3,5,6,7,8,9,10,11,13a,14,14a,15,16,16a-hexadecahydrocyclopropa[e]pyrrolo[1,2-a][1,4]diazacyclopentadecin-6-yl)carbamate], the EC50 in assay [1] and in assay [2] was under 5.46 nM in each case.
With `C[C@H]1CC/C=C\[C@@H]2C[C@@]2(C(=O)NS(=O)(=O)C2(C)CC2)NC(=O)[C@@H]2C[C@@H](Oc3nccc4c5c(ccc34)OCCO5)CN2C(=O)[C@@H](NC(=O)OC(C)(C)C)[C@H](C)C1` [Compound 5244, tert-butyl ((2R,6S,7R,9S,13aS,14aR,16aS,Z)-2-((2,3-dihydro-[1,4]dioxino[2,3-f]isoquinolin-7-yl)oxy)-7,9-dimethyl-14a-(((1-methylcyclopropyl)sulfonyl)carbamoyl)-5,16-dioxo-1,2,3,5,6,7,8,9,10,11,13a,14,14a,15,16,16a-hexadecahydrocyclopropa[e]pyrrolo[1,2-a][1,4]diazacyclopentadecin-6-yl)carbamate], the 50% effective concentration (EC50) in assay [1] and in assay [2] was 4.82 to 103 nM each time.
With `C[C@@H]1CC/C=C\[C@@H]2C[C@@]2(C(=O)NS(=O)(=O)C2(C)CC2)NC(=O)[C@@H]2C[C@@H](Oc3nccc4c5c(ccc34)OCCO5)CN2C(=O)[C@@H](NC(=O)OC(C)(C)C)[C@H](C)C1` [Compound 5245, tert-butyl ((2R,6S,7R,9R,13aS,14aR,16aS,Z)-2-((2,3-dihydro-[1,4]dioxino[2,3-f]isoquinolin-7-yl)oxy)-7,9-dimethyl-14a-(((1-methylcyclopropyl)sulfonyl)carbamoyl)-5,16-dioxo-1,2,3,5,6,7,8,9,10,11,13a,14,14a,15,16,16a-hexadecahydrocyclopropa[e]pyrrolo[1,2-a][1,4]diazacyclopentadecin-6-yl)carbamate], the EC50 in assay [1] and in assay [2] was under 5.46 nM in each case.
On to `C[C@H]1CC/C=C\[C@@H]2C[C@@]2(C(=O)NS(=O)(=O)C2(C)CC2)NC(=O)[C@@H]2C[C@@H](Oc3nccc4c5c(ccc34)OCCO5)CN2C(=O)[C@@H](NC(=O)OC(C)(C)C(F)(F)F)[C@H](C)C1` [Compound 5246, 1,1,1-trifluoro-2-methylpropan-2-yl((2R,6S,7R,9S,13aS,14aR,16aS,Z)-2-((2,3-dihydro-[1,4]dioxino[2,3-f]isoquinolin-7-yl)oxy)-7,9-dimethyl-14a-(((1-methylcyclopropyl)sulfonyl)carbamoyl)-5,16-dioxo-1,2,3,5,6,7,8,9,10,11,13a,14,14a,15,16,16a-hexadecahydrocyclopropa[e]pyrrolo[1,2-a][1,4]diazacyclopentadecin-6-yl)carbamate], for which the EC50 in assay [1] and in assay [2] was 4.82 to 103 nM throughout.
Consider `C[C@@H]1CC/C=C\[C@@H]2C[C@@]2(C(=O)NS(=O)(=O)C2(C)CC2)NC(=O)[C@@H]2C[C@@H](Oc3nccc4c5c(ccc34)OCCO5)CN2C(=O)[C@@H](NC(=O)OC(C)(C)C(F)(F)F)[C@H](C)C1` [Compound 5247, 1,1,1-trifluoro-2-methylpropan-2-yl((2R,6S,7R,9R,13aS,14aR,16aS,Z)-2-((2,3-dihydro-[1,4]dioxino[2,3-f]isoquinolin-7-yl)oxy)-7,9-dimethyl-14a-(((1-methylcyclopropyl)sulfonyl)carbamoyl)-5,16-dioxo-1,2,3,5,6,7,8,9,10,11,13a,14,14a,15,16,16a-hexadecahydrocyclopropa[e]pyrrolo[1,2-a][1,4]diazacyclopentadecin-6-yl)carbamate], for which the EC50 in assay [1] and in assay [2] was under 5.46 nM each time.
Regarding `C[C@H]1CC/C=C\[C@@H]2C[C@@]2(C(=O)NS(=O)(=O)C2(C)CC2)NC(=O)[C@@H]2C[C@@H](Oc3nccc4c5c(ccc34)OCCO5)CN2C(=O)[C@@H](NC(=O)O[C@@H]2C[C@@H]3C[C@@H]3C2)[C@H](C)C1` [Compound 5248, (1R,3r,5 S)-bicyclo[3.1.0]hexan-3-yl((2R,6S,7R,9S,13aS,14aR,16aS,Z)-2-((2,3-dihydro-[1,4]dioxino[2,3-f]isoquinolin-7-yl)oxy)-7,9-dimethyl-14a-(((1-methylcyclopropyl)sulfonyl)carbamoyl)-5,16-dioxo-1,2,3,5,6,7,8,9,10,11,13a,14,14a,15,16,16a-hexadecahydrocyclopropa[e]pyrrolo[1,2-a][1,4]diazacyclopentadecin-6-yl)carbamate], the EC50 in assay [1] is 4.82 to 103 nM; in assay [2], under 5.46 nM.
`C[C@@H]1CC/C=C\[C@@H]2C[C@@]2(C(=O)NS(=O)(=O)C2(C)CC2)NC(=O)[C@@H]2C[C@@H](Oc3nccc4c5c(ccc34)OCCO5)CN2C(=O)[C@@H](NC(=O)O[C@@H]2C[C@@H]3C[C@@H]3C2)[C@H](C)C1` [Compound 5249, (1R,3r,5 S)-bicyclo[3.1.0]hexan-3-yl((2R,6S,7R,9R,13aS,14aR,16aS,Z)-2-((2,3-dihydro-[1,4]dioxino[2,3-f]isoquinolin-7-yl)oxy)-7,9-dimethyl-14a-(((1-methylcyclopropyl)sulfonyl)carbamoyl)-5,16-dioxo-1,2,3,5,6,7,8,9,10,11,13a,14,14a,15,16,16a-hexadecahydrocyclopropa[e]pyrrolo[1,2-a][1,4]diazacyclopentadecin-6-yl)carbamate]: the EC50 in assay [1] and in assay [2] was under 5.46 nM throughout.

The values above are taken from US9499550B2 (BRISTOL-MYERS SQUIBB COMPANY, priority 2012, dated 2016).
